The text below walks through data of patent publication US12030896B2, “PIKfyve inhibitors” (Mayo Foundation for Medical Education and Research, priority 2018, dated 2024).

This assay concerns Human Glioblastoma multiforme cells (T98G, G22VF, U251) and human medulloblastoma cells (p16, p9). The assay can be described thus: Cell viability by cell titer-Glo luminescence (ATP level) assay. The conditions noted are these: 72 hours, various concentrations. It counts as cell-based. As for the experimental part: Human Glioblastoma multiforme cells (T98G, G22VF, U251) and human medulloblastoma cells (p16, p9) were incubated with various concentrations of Example 1 for 72 hours, and then cell viability assessed by cell titer-Glo luminescence (ATP level) assay.
Methods: Example 1 was dissolved into DMSO (ATCC) at a concentration of 40 mM, this stock was further diluted to 2× the highest final working concentration into complete medium consisting of DMEM (Life Technologies), penicillin/streptomycin antibiotic solution (Life Technologies), and 10% FBS (Seradigm). This stock was dispensed into the final column of a white-walled, flat-bottomed 96-well plate (Corning). Serial dilutions (1.5× or 2× depending on the assay) were then made using complete medium down to the lowest assayed concentration of Example 1. The final column of the 96-well plate was saved as a vehicle-only control and included DMSO diluted 1:250 in complete medium. […]
These plates were placed in a 5% CO2, 37° C. incubator. After 72 hrs of incubation, relative ATP content was measured as an indirect indication of the number of viable cells per well. […] This reaction was protected from light and incubated for 10 min at room temperature, then total luminescence was read using a Synergy H1 microplate reader (Biotek).
Raw luminescence numbers or relative ATP concentration (reported as a percentage of the vehicle-treated control) are show. […]

In the case of `Cc1ccc(Nc2nc(N/N=C/c3c[nH]c4ccccc34)nc(N3CCOCC3)n2)cc1` [Example 1, (E)-4-(2-((1H-indol-3-yl)methylene)hydrazinyl)-6-morpholino-N-(p-tolyl)-1,3,5-triazin-2-amine], the “cell viability (ATP level)” value is on record as “killed effectively”.
